Test results from PMC4467461, “Small-molecule activation of SERCA2a SUMOylation for the treatment of heart failure” (Nature Communications, 2015).
Read-outs that look alike come from different tables or passages of the source.

Assays:
[1] = system: mouse heart tissue (sham and TAC); experiment: Molecular analysis of heart tissue of N106-infused mice (western blot, immunoprecipitation, ATPase activity); assay type: in vivo
Protocol: Protein extracts (20∼50 μg) were obtained from isolated cardiomyocytes, which was lysed in RIPA buffer (R&D Systems Inc., MN, USA) contained protease inhibitors (Complete mini, Roche Diagnostics, IN, USA) and 20 mM NEM (Sigma-Aldrich). For SERCA2a SUMOylation assays, cardiac protein extracts were immunoprecipitated with a SUMO-1 agarose resin (Santa Cruz Biotechnology Inc., CA, USA) for overnight at 4 °C. The resins were washed with cold lysis buffer three times. The immunocomplexes were then resolved by SDS–PAGE and western blot analysis was performed using a SERCA2a-specific antibody. For general western blotting, cardiac proteins (10∼50 μg) were separated on SDS–PAGE gel, transferred to nitrocellulose membrane (Bio-Rad, CA, USA) and blotted with the following primary antibodies: SUMO-1 (1:1,000, R&D Systems Inc.), Ubc9 (1:1,000, R&D Systems Inc.), SAE2 (1:1,000, Abcam Inc., MA, USA), SERCA2a (1:3,000, 21st Century Biochemicals, MA, USA), PLN (1:5,000, Badrilla Ltd., UK), PLN phosphorylation at serine-16 (1:5,000, Badrilla Ltd.), RyR2 (1:5,000, Abcam Inc.), NCX (1:1,000, Novus Biologicals, CO, USA), glyceraldehyde 3-phosphate (1:10,000, Sigma-Aldrich), GATA4 (1:1,000, Millipore, NY, USA) and Sp1 (1:500, Millipore). Secondary antibodies anti-mouse IgG-HRP (1:10,000) and anti-rabbit IgG-HRP (1:10,000) were purchased from Sigma-Aldrich. The immunoreactive bands were visualized by a supersignal chemiluminescence detection reagent (Pierce Biotechnology, IL, USA). Full scans of western blots are presented in Supplementary Fig. 14.
SERCA2a ATPase activity was determined using a coupled enzymes assay including pyruvate kinase/lactate dehydrogenase/NADH-coupled reactions. Microsomes were enriched by differential density centrifugation. The cardiac cells and tissues were homogenized on ice in homogenization buffer (250 mM sucrose (Sigma-Aldrich), 5 mM HEPES pH7.0 (Sigma-Aldrich), 1 mM phenylmethyl sulfonyl fluoride (Sigma-Aldrich), protease inhibitor cocktail (Roche Life Science, IN, USA)). The homogenates were centrifuged at 1,000g for 10 min at 4 °C, then the supernatants were collected and centrifuged at 12,000g for 15 min at 4 °C. The supernatants were transferred to ultracentrifuge tubes and centrifuged for 1 h at 140,000g at 4 °C (Optima XE-100, Beckman Coulter). The pellets were resuspended in homogenization buffer to determine protein concentration and calcium-dependent ATPase activity assay. Protein concentration was measured with a 2-D Quant Kit (GE Healthcare Life Sciences, PA, USA). The ATPase activity were measured at 25 °C in 50 mM MOPS (Boston Bioproducts, MA, USA), 100 mM KCl (Boston Bioproducts), 5 mM MgCl2 (Boston Bioproducts), 1 mM EDTA (Boston Bioproducts) at pCa 5.0 by using a coupled enzyme system consisting of pyruvate kinase and lactate dehydrogenase, and monitoring the oxidation of the reduced form of NADH at […].
Supplementary Figure 9. Molecular analysis in N106 treated mice. (a-d) Representative western blots and protein quantification of select cardiac proteins. Mice heart tissue samples were obtained after external jugular vein infusion with vehicle or 10 mg.kg-1of N106 from sham and TAC mice. The experiments shown are representative of three independent Western blots with […]
(also on this page, place not known: TACSham TACSham TACSham SUMO-1 Conjugates (relative fold) N106Vehicle TACSham Veh RyR2/GAPDH (relative fold)Vehicle N106Vehicle Veh TACSham Veh 0.5 NCX/GAPDH (relative fold) NSNS N106Vehicle N106Vehicle N106Vehicle 200ATPase activity (% of control)Vehicle N106Vehicle TAC PLN/GAPDH (relative fold) P-PLN/PLN (relative fold) MW) […]
similar results. (e) The enzyme activity of SERCA2a was determined by using the same set of heart tissue samples. (f) SUMO-1 conjugate was measured by Western blot analysis with an anti-SUMO-1 antibody. Band intensity was quantified by Image J software. The amount of GAPDH was used as a normalization control. […]

[2] = Single-dose pharmacokinetic profile; assay type: in vivo, mice; details: male, mouse, plasma; for Cmax / half-life: 10 mg/kg
Protocol: The male mice were received with a small molecule N106 at 10 mg kg^−1 intravenously and 10 mg kg^−1 orally (PO). The bloods were corrected at 30 min, 1, 2 and 4 h after administration intravenously and at 30 min, 1, 2 and 4 h after treatment for oral administration studies. Plasma samples from these studies were extracted by plasma separator tube containing lithium heparin (BD Microcontainer, NJ, USA). Plasma concentrations of N106 were determined by HPLC analysis and pharmacokinetic parameters. Three mice for each time point were used.
Supplementary Figure 13. Pharmacokinetic profile of N106 following administration to mice. The murine PK profile of single dose of N106 (10 mg.kg-1) was determined following intravenously (IV) and oral (PO) administration and analysis of plasma samples was performed by high performance liquid chromatography. Data represents mean value of N106 plasma concentrations in mice. n = 3 mice per each time point. Cmax, maximum concentration; T ½, half time; Tmax, time to peak concentration.

For `COc1ccc(-c2nnc(Nc3nc4c(OC)cccc4s3)o2)cc1` [Compound N106, N-(4-methoxybenzo[d]thiazol-2-yl)-5-(4-methoxyphenyl)-1,3,4-oxadiazol-2-amine], the “GATA4 SUMOylation and its protein levels” value ([1]; 10 mg kg^−1) was “no significant effect”, the “protein levels of Sp1” value ([1]; 10 mg kg^−1) was “not changed” and the SERCA2a protein levels ([1]; 10 mg kg^−1 infusion) was “not significantly changed”. For the same compound, the “protein levels and phosphorylation states of phospholamban” value ([1]; 10 mg kg^−1 infusion) was “Neither protein levels nor phosphorylation states of phospholamban were changed”, the “protein levels of cardiac ryanodine receptor and sodium–calcium exchanger” value ([1]; 10 mg kg^−1 infusion) was “not significant changes” and the “whole SUMO-1 conjugates” value ([1]; 10 mg kg^−1 infusion) was “not significantly changed”. The “SUMOylated specificity protein 1 (Sp1) form” value ([1]; TAC heart, 10 mg kg^−1) was “significantly induced”, the “SUMOylation of SERCA2a versus vehicle control” value ([1]; TAC hearts, 10 mg kg^−1) was “significantly increased” and the “SERCA2a’s ATPase activity versus vehicle-treated hearts” value ([1]; TAC hearts, 10 mg kg^−1 (P=0.06)) was “somewhat higher”. For the same compound, the “SUMOylation of SERCA2a versus vehicle control” value ([1]; sham-operated group, 10 mg kg^−1 (P=0.07)) was “increasing trend”, the Cmax ([2]; iv, mice, 10 mg kg^−1 intravenous) was 2240 nM and the half-life ([2]; iv, mice, 10 mg kg^−1 intravenous, read-out: half-life) was 65.4 min. For the same compound, the bioavailability ([2]; oral, 10 mg kg^−1, mice, 10 mg kg^−1 PO vs IV, read-out: oral bioavailability (F%)) was 56%, the Cmax ([2]; po, mice, 10 mg kg^−1 oral) was 457 nM and the half-life ([2]; po, mice, 10 mg kg^−1 oral, read-out: terminal elimination half-life (t1/2)) was 19 min. It also gave a Tmax ([2]; mice, 10 mg kg^−1 oral) of 30 min.
